Test results published in paper PMC8716824, “Design, Synthesis and Anti-Lung Cancer Evaluation of 1, 2, 3-Triazole Tethered Dihydroartemisinin-Isatin Hybrids” (Frontiers in Pharmacology, 2021).
Where two headings read alike, the source gives them in different places.

How the values were obtained:
[1] = system: cisplatin-resistant A549 (A549/DDP) lung cancer cells; test: MTT antiproliferative assay, A549/DDP; format: cell-based
Method: (§1) The antiproliferative activity of 1,2,3-triazole tethered dihydroartemisinin-isatin hybrids 8a-c and 9a-k against A549, multidrug-resistant A549/DOX and A549/DDP lung cancer cell lines as well as cytotoxicity towards mouse embryonic fibroblast cells NIH/3T3 were assessed by 3-(4,5-dimethylthiazol-2-yl)-2,5-diphenyltetrazolium bromide (MTT) assay, and half maximal inhibitory concentration (IC50) values were listed in Table 2. A549, A549/DOX, and A549/DDP lung cancer cells (2 × 10^3) were plated in each well of a 96-well plate and were allowed to adhere and spread for 24 h. The 1,2,3-triazole tethered dihydroartemisinin-isatin hybrids 8a-c and 9a-k were added to a final concentration of 100 μM, and the cells were cultured for 24 h at 37°C. 3-(4,5-dimethyl-2-thiazolyl)-2,5-diphenyltetrazolium bromide (MTT) solution (10 µL) was added to each well, and the cultures were incubated for an additional 4 h. A further 100 µL of […] was added and incubation continued overnight. The absorbance at 540 nm was determined in each well with a 96-well plate reader. The growth of the treated cells was compared with that of untreated cells.

A549 lung cancer cells = test: MTT antiproliferative assay, A549; format: cell-based
Method: as §1

[2] = system: mouse embryonic fibroblast cells NIH/3T3; test: MTT cytotoxicity assay, NIH/3T3; format: cell-based; conditions: for SI (selectivity index): IC50(NIH/3T3)/IC50(A549); for IC50: cytotoxicity, NIH/3T3 cells, MTT (called CC50 in method)
Method: The antiproliferative activity of 1,2,3-triazole tethered dihydroartemisinin-isatin hybrids 8a-c and 9a-k against A549, multidrug-resistant A549/DOX and A549/DDP lung cancer cell lines as well as cytotoxicity towards mouse embryonic fibroblast cells NIH/3T3 were assessed by 3-(4,5-dimethylthiazol-2-yl)-2,5-diphenyltetrazolium bromide (MTT) assay, and half maximal inhibitory concentration (IC50) values were listed in Table 2.
The cytotoxicity (CC50) of the synthesized 1,2,3-triazole tethered dihydroartemisinin-isatin hybrids 8a-c and 9a-k were examined by the MTT assay in mouse embryonic fibroblast cells NIH/3T3. The compounds were dissolved in DMSO with concentrations from 1,024 to 1 μg/ml. The NIH/3T3 cells were maintained in culture medium at 37°C under 5% CO2 atmosphere. Cells were seeded in 96-well plates (1 × 10^4 cell per well) and allowed to recover for 24 h. After 72 h of exposure, cells were harvested and cell viability was assessed by MTT assay. The CC50 values were calculated by Bliss analy.

[3] = system: doxorubicin-resistant A549 (A549/DOX) lung cancer cells; test: MTT antiproliferative assay, A549/DOX; format: cell-based
Method: as §1

[4] = Stability in human liver microsomes; format: in vitro ADME
Method: (§2) The metabolic stability of selected hybrids 8a,c and 9i was assessed in mouse and human microsomes, and the results were listed in Table 3.

[5] = Stability in mouse liver microsomes; format: in vitro ADME
Method: as §2

[6] = system: A549, A549/DOX and A549/DDP lung cancer cell lines; test: MTT antiproliferative assay, ranges pooled over lung cancer cell lines; format: cell-based
Method: as §1

[7] = range over the three lung cancer cell lines, read-out: IC50, range over A549, A549/DOX and A549/DDP

Row | SMILES | IC50 ([1]; A549/DDP) [µM] | IC50 (A549 lung cancer cells; Homo sapiens) [µM] | IC50 ([3]; Homo sapiens) [µM] | Liver microsomes, Human [4] [%] | Liver microsomes, Mouse [5] [%] | IC50 ([6]; Homo sapiens, range over A549 and A549/DOX, read-out: IC50, range over A549 and A549/DOX) [µM] | IC50 [6, 7] [µM] | SI (selectivity index) [2] | IC50 ([2]; Mus musculus, NIH3T3) [µM] | IC50 [1] [µM] | IC50 (A549 lung cancer cells) [µM] | IC50 [2] [µM] | IC50 [3] [µM] | IC50 ([6]; range over A549 and A549/DOX, read-out: IC50, range over A549 and A549/DOX) [µM]
1 | COc1ccc2c(c1)C(=O)C(=O)N2CCn1cc(COC2O[C@@H]3O[C@@]4(C)CC[C@H]5[C@H](C)CC[C@@H]([C@H]2C)[C@@]35OO4)nn1 (stereo partly drawn) [8b, 5-methoxy-1-(2-(4-((((3R,5aS,6R,8aS,9R,12R,12aR)-3,6,9-trimethyldecahydro-12H-3,12-epoxy[1,2]dioxepino[4,3-i]isochromen-10-yl)oxy)methyl)-1H-1,2,3-triazol-1-yl)ethyl)indoline-2,3-dione] | 19.5 | 21.6 | 32 |  |  |  |  | >4.6 | > 100 |  |  |  |  | 
2 | C[C@@H]1CC[C@H]2[C@@H](C)C(OCc3cn(CCN4C(=O)C(=NO)c5ccccc54)nn3)O[C@@H]3O[C@@]4(C)CC[C@@H]1[C@]32OO4 (stereo partly drawn) [9b, 3-(hydroxyimino)-1-(2-(4-((((3R,5aS,6R,8aS,9R,12R,12aR)-3,6,9-trimethyldecahydro-12H-3,12-epoxy[1,2]dioxepino[4,3-i]isochromen-10-yl)oxy)methyl)-1H-1,2,3-triazol-1-yl)ethyl)indolin-2-one] | 30.3 | 12 | 26.1 |  |  |  |  | >8.3 | > 100 |  |  |  |  | 
3 | CON=C1C(=O)N(CCn2cc(COC3O[C@@H]4O[C@@]5(C)CC[C@H]6[C@H](C)CC[C@@H]([C@H]3C)[C@@]46OO5)nn2)c2ccccc21 (stereo partly drawn) [9c, 3-(methoxyimino)-1-(2-(4-((((3R,5aS,6R,8aS,9R,12R,12aR)-3,6,9-trimethyldecahydro-12H-3,12-epoxy[1,2]dioxepino[4,3-i]isochromen-10-yl)oxy)methyl)-1H-1,2,3-triazol-1-yl)ethyl)indolin-2-one] | 27.4 | 22.7 | 19.5 |  |  |  |  | >4.4 | > 100 |  |  |  |  | 
4 | CON=C1C(=O)N(CCn2cc(COC3O[C@@H]4O[C@@]5(C)CC[C@H]6[C@H](C)CC[C@@H]([C@H]3C)[C@@]46OO5)nn2)c2ccc(OC)cc21 (stereo partly drawn) [9f, 5-methoxy-3-(methoxyimino)-1-(2-(4-((((3R,5aS,6R,8aS,9R,12R,12aR)-3,6,9-trimethyldecahydro-12H-3,12-epoxy[1,2]dioxepino[4,3-i]isochromen-10-yl)oxy)methyl)-1H-1,2,3-triazol-1-yl)ethyl)indolin-2-one] | 51.8 | 65.4 | 79.5 |  |  |  |  | >1.5 | > 100 |  |  |  |  | 
5 | CCON=C1C(=O)N(CCn2cc(COC3O[C@@H]4O[C@@]5(C)CC[C@H]6[C@H](C)CC[C@@H]([C@H]3C)[C@@]46OO5)nn2)c2ccc(OC)cc21 (stereo partly drawn) [9g, 3-(ethoxyimino)-5-methoxy-1-(2-(4-((((3R,5aS,6R,8aS,9R,12R,12aR)-3,6,9-trimethyldecahydro-12H-3,12-epoxy[1,2]dioxepino[4,3-i]isochromen-10-yl)oxy)methyl)-1H-1,2,3-triazol-1-yl)ethyl)indolin-2-one] | 61.7 | 73.8 | 45 |  |  |  |  | >1.3 | > 100 |  |  |  |  | 
6 | C[C@@H]1CC[C@H]2[C@@H](C)C(OCc3cn(CCN4C(=O)C(=NO)c5cc(F)ccc54)nn3)O[C@@H]3O[C@@]4(C)CC[C@@H]1[C@]32OO4 (stereo partly drawn) [9i, 5-fluoro-3-(hydroxyimino)-1-(2-(4-((((3R,5aS,6R,8aS,9R,12R,12aR)-3,6,9-trimethyldecahydro-12H-3,12-epoxy[1,2]dioxepino[4,3-i]isochromen-10-yl)oxy)methyl)-1H-1,2,3-triazol-1-yl)ethyl)indolin-2-one] | 14.3 | 9.1 | 15.9 | 60 | 46 | 7.54 to 15.9 | 9.1 to 15.9 | >11.0 | > 100 |  |  |  |  | 
7 | CON=C1C(=O)N(CCn2cc(COC3O[C@@H]4O[C@@]5(C)CC[C@H]6[C@H](C)CC[C@@H]([C@H]3C)[C@@]46OO5)nn2)c2ccc(F)cc21 (stereo partly drawn) [9j, 5-fluoro-3-(methoxyimino)-1-(2-(4-((((3R,5aS,6R,8aS,9R,12R,12aR)-3,6,9-trimethyldecahydro-12H-3,12-epoxy[1,2]dioxepino[4,3-i]isochromen-10-yl)oxy)methyl)-1H-1,2,3-triazol-1-yl)ethyl)indolin-2-one] | 38.2 | 9.61 | 13 |  |  |  |  | >10.4 | > 100 |  |  |  |  | 
8 | C[C@H]1[C@@H](O)O[C@@H]2O[C@@]3(C)CC[C@H]4[C@H](C)CC[C@@H]1[C@@]24OO3 [DHA, Dihydroartemisinin] | 75.9 | 69.4 | 88 |  |  |  | 69.4 to 88 | >1.4 | > 100 |  |  |  |  | 
9 | N.N.[Cl][Pt][Cl] [cisplatin, reference compound] |  |  |  |  |  |  | 9.38 to 66.9 |  |  | 66.9 | 9.38 | > 100 | 19.7 | 9.38 to 19.7

The next lines start with results.

Row | IC50 ([1]; A549/DDP) [µM] | IC50 (A549 lung cancer cells; Homo sapiens) [µM] | IC50 ([3]; Homo sapiens) [µM] | Liver microsomes, Human [4] [%] | Liver microsomes, Mouse [5] [%] | IC50 ([6]; Homo sapiens, range over A549 and A549/DOX, read-out: IC50, range over A549 and A549/DOX) [µM] | IC50 [6, 7] [µM] | SMILES | SI (selectivity index) [2] | IC50 ([2]; Mus musculus, NIH3T3) [µM] | IC50 [1] [µM] | IC50 (A549 lung cancer cells) [µM] | IC50 [2] [µM] | IC50 [3] [µM] | IC50 ([6]; range over A549 and A549/DOX, read-out: IC50, range over A549 and A549/DOX) [µM]
10 | 30.9 | 16.3 | 38.4 |  |  |  |  | C[C@@H]1CC[C@H]2[C@@H](C)C(OCc3cn(CCN4C(=O)C(=NNC(N)=S)c5ccccc54)nn3)O[C@@H]3O[C@@]4(C)CC[C@@H]1[C@]32OO4 (stereo partly drawn) [9a, 2-(2-oxo-1-(2-(4-((((3R,5aS,6R,8aS,9R,12R,12aR)-3,6,9-trimethyldecahydro-12H-3,12-epoxy[1,2]dioxepino[4,3-i]isochromen-10-yl)oxy)methyl)-1H-1,2,3-triazol-1-yl)ethyl)indolin-3-ylidene)hydrazine-1-carbothioamide] | >6.1 | > 100 |  |  |  |  | 
11 | 33.7 | 25.6 | 20.8 |  |  |  |  | CCON=C1C(=O)N(CCn2cc(COC3O[C@@H]4O[C@@]5(C)CC[C@H]6[C@H](C)CC[C@@H]([C@H]3C)[C@@]46OO5)nn2)c2ccccc21 (stereo partly drawn) [9d, 3-(ethoxyimino)-1-(2-(4-((((3R,5aS,6R,8aS,9R,12R,12aR)-3,6,9-trimethyldecahydro-12H-3,12-epoxy[1,2]dioxepino[4,3-i]isochromen-10-yl)oxy)methyl)-1H-1,2,3-triazol-1-yl)ethyl)indolin-2-one] | >3.9 | > 100 |  |  |  |  | 
12 | 29.9 | 16.3 | 31.4 |  |  |  |  | C[C@@H]1CC[C@H]2[C@@H](C)C(OCc3cn(CCN4C(=O)C(=NOCc5ccccc5)c5ccccc54)nn3)O[C@@H]3O[C@@]4(C)CC[C@@H]1[C@]32OO4 (stereo partly drawn) [9e, 3-((benzyloxy)imino)-1-(2-(4-((((3R,5aS,6R,8aS,9R,12R,12aR)-3,6,9-trimethyldecahydro-12H-3,12-epoxy[1,2]dioxepino[4,3-i]isochromen-10-yl)oxy)methyl)-1H-1,2,3-triazol-1-yl)ethyl)indolin-2-one] | >6.1 | > 100 |  |  |  |  | 
13 | 59.4 | 44.7 | 77.7 |  |  |  |  | COc1ccc2c(c1)C(=NOCc1ccccc1)C(=O)N2CCn1cc(COC2O[C@@H]3O[C@@]4(C)CC[C@H]5[C@H](C)CC[C@@H]([C@H]2C)[C@@]35OO4)nn1 (stereo partly drawn) [9h, 3-((benzyloxy)imino)-5-methoxy-1-(2-(4-((((3R,5aS,6R,8aS,9R,12R,12aR)-3,6,9-trimethyldecahydro-12H-3,12-epoxy[1,2]dioxepino[4,3-i]isochromen-10-yl)oxy)methyl)-1H-1,2,3-triazol-1-yl)ethyl)indolin-2-one] | >2.2 | > 100 |  |  |  |  | 
14 | 28.7 | 15.8 | 31.1 |  |  |  |  | CCON=C1C(=O)N(CCn2cc(COC3O[C@@H]4O[C@@]5(C)CC[C@H]6[C@H](C)CC[C@@H]([C@H]3C)[C@@]46OO5)nn2)c2ccc(F)cc21 (stereo partly drawn) [9k, 3-(ethoxyimino)-5-fluoro-1-(2-(4-((((3R,5aS,6R,8aS,9R,12R,12aR)-3,6,9-trimethyldecahydro-12H-3,12-epoxy[1,2]dioxepino[4,3-i]isochromen-10-yl)oxy)methyl)-1H-1,2,3-triazol-1-yl)ethyl)indolin-2-one] | >6.3 | > 100 |  |  |  |  | 
15 | > 100 | > 100 | > 100 |  |  |  | > 100 | C[C@@H]1CC[C@H]2[C@@H](C)C(=O)O[C@@H]3O[C@@]4(C)CC[C@@H]1[C@]32OO4 [Artemisinin] |  | > 100 |  |  |  |  | 
